Reference: the supplement of paper PMC6045584
± gives the standard deviation of the averaged measurements.

Experiments:
CABOZANTINIB [1] = compound: T1, COc1cc2nccc(Oc3ccc(NC(=O)C4(C(=O)Nc5ccc(F)cc5)CC4)cc3)c2cc1OC [CABOZANTINIB]; experiment: surviving fraction relative to DMSO-only wells; higher = less growth inhibition; conditions: exposure time: 5 days
Summary of the method: (§1)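 In 384-well plates, 250–500 log-phase tumour cells per well were given 24 hours before five days of continuous exposure to inhibitors at 0.5, 1, 5, 10, 50, 100, 500 and 1000 nM. Surviving fraction is luminescence from CellTiter-Glo, normalised to the median of wells containing DMSO alone. Reading took place after 10 minutes at room temperature.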

VORINOSTAT [2] = compound: T2, O=C(CCCCCCC(=O)Nc1ccccc1)NO [VORINOSTAT]; experiment: as above; conditions: exposure time: 5 days
Summary of the method: as §1

CABOZANTINIB [3] = compound: T1, CABOZANTINIB; experiment: area under dose-response curve of surviving fraction (unscaled, Aref=0) (surviving fraction x log10(nM)); higher = more resistant; conditions: exposure time: 5 days; dose range 0.5-1000 nM
Summary of the method: (§2)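 Three screens per tumour cell line were run in 384-well plates at eight inhibitor concentrations from 0.5 to 1000 nM over five days. Surviving fractions, from CellTiter-Glo luminescence normalised to DMSO-only wells, were fitted with 3-parameter logistic curves in the drc R package. The reported area under the curve is the unscaled activity area. It spans log10 dose, and Aref is 0.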

BMN-673 = compound: Cn1ncnc1[C@H]1c2n[nH]c(=O)c3cc(F)cc(c23)N[C@@H]1c1ccc(F)cc1 [BMN-673]; experiment: as above; conditions: exposure time: 5 days; dose range 0.5-1000 nM
Summary of the method: as §2

[4] = compound: C[C@@H]1CN(CC(=O)Nc2ccc3c(c2)Cc2cccc(-c4cc(=O)cc(N5CCOCC5)o4)c2S3)C[C@H](C)O1; experiment: as above; conditions: exposure time: 5 days; dose range 0.5-1000 nM
Summary of the method: as §2

VORINOSTAT [5] = compound: T2, VORINOSTAT; experiment: as above; conditions: exposure time: 5 days; dose range 0.5-1000 nM
Summary of the method: as §2

| Test System | surviving fraction (CABOZANTINIB [1]; 0.5 nM) | surviving fraction (CABOZANTINIB [1]; 1 nM) | surviving fraction (CABOZANTINIB [1]; 5 nM) | surviving fraction (CABOZANTINIB [1]; 10 nM) | surviving fraction (CABOZANTINIB [1]; 50 nM) | surviving fraction (CABOZANTINIB [1]; 100 nM) | surviving fraction (CABOZANTINIB [1]; 500 nM) | surviving fraction (CABOZANTINIB [1]; 1000 nM) | surviving fraction (VORINOSTAT [2]; 0.5 nM) | surviving fraction (VORINOSTAT [2]; 1 nM) | surviving fraction (VORINOSTAT [2]; 5 nM) | surviving fraction (VORINOSTAT [2]; 10 nM) | surviving fraction (VORINOSTAT [2]; 50 nM) | surviving fraction (VORINOSTAT [2]; 100 nM) | surviving fraction (VORINOSTAT [2]; 500 nM) | surviving fraction (VORINOSTAT [2]; 1000 nM) | area under dose-response curve (CABOZANTINIB [3]) | area under dose-response curve (BMN-673) | area under dose-response curve [4] | area under dose-response curve (VORINOSTAT [5]) |
| --- | --- | --- | --- | --- | --- | --- | --- | --- | --- | --- | --- | --- | --- | --- | --- | --- | --- | --- | --- | --- |
| 22RV1 PROSTATE | 0.946 ± 0.039 | 1.03 ± 0.018 | 0.992 ± 0.056 | 1 ± 0.13 | 1.03 ± 0.06 | 1.08 ± 0.15 | 1.07 ± 0.095 | 0.909 ± 0.18 | 0.946 ± 0.09 | 1.02 ± 0.026 | 0.987 ± 0.054 | 0.994 ± 0.034 | 1.09 ± 0.046 | 1.03 ± 0.058 | 1.03 ± 0.051 | 0.726 ± 0.071 | 3.33 | 2.4 | 3.54 | 3.27 |
| 93VU HEADNECK | 0.824 ± 0.084 | 0.841 ± 0.026 | 0.916 ± 0.028 | 1.01 ± 0.14 | 1.02 ± 0.084 | 0.967 ± 0.05 | 0.777 ± 0.042 | 0.71 ± 0.051 | 0.966 ± 0.02 | 1.06 ± 0.045 | 1.09 ± 0.087 | 1.08 ± 0.077 | 1.18 ± 0.093 | 1.1 ± 0.07 | 0.947 ± 0.035 | 0.731 ± 0.13 | 3.14 | – | – | 3.25 |
| 143B BONE | 1.07 ± 0.08 | 1.03 ± 0.023 | 1.02 ± 0.013 | 1.05 ± 0.02 | 1.01 ± 0.038 | 1.09 ± 0.059 | 1.048 ± 0.0092 | 1.06 ± 0.031 | 1.01 ± 0.0028 | 1.02 ± 0.011 | 1.053 ± 0.0014 | 1.01 ± 0.031 | 1.01 ± 0.03 | 1.02 ± 0.042 | 0.858 ± 0.11 | 0.835 ± 0.026 | – | – | 3.28 | 3.26 |
| ASKA SYNOVIAL | 1.09 ± 0.049 | 1.1 ± 0.062 | 1.13 ± 0.11 | 1.18 ± 0.029 | 1.08 ± 0.04 | 1.2 ± 0.03 | 1.1 ± 0.1 | 1.03 ± 0.029 | 1.01 ± 0.033 | 1.03 ± 0.038 | 1.08 ± 0.045 | 0.951 ± 0.022 | 1.05 ± 0.015 | 1.01 ± 0.018 | 0.724 ± 0.024 | 0.525 ± 0.028 | 3.68 | 1.83 | 3.87 | 3.14 |
| CADOES1 SOFT TISSUE | 0.946 ± 0.15 | 0.895 ± 0.081 | 0.994 ± 0.054 | 0.914 ± 0.15 | 0.858 ± 0.16 | 0.877 ± 0.034 | 0.976 ± 0.056 | 0.878 ± 0.17 | 0.968 ± 0.063 | 0.916 ± 0.028 | 0.865 ± 0.096 | 0.824 ± 0.057 | 0.71 ± 0.23 | 0.397 ± 0.23 | 0.242 ± 0.057 | 0.0883 ± 0.016 | 3.02 | 1.72 | 3.25 | 2.16 |
| CAL51 BREAST | 1.01 ± 0.08 | 0.953 ± 0.025 | 1.04 ± 0.041 | 0.954 ± 0.062 | 1.06 ± 0.056 | 1.07 ± 0.022 | 0.944 ± 0.091 | 0.89 ± 0.015 | 0.956 ± 0.013 | 0.951 ± 0.056 | 1.02 ± 0.011 | 0.906 ± 0.021 | 1.02 ± 0.024 | 0.97 ± 0.078 | 0.65 ± 0.022 | 0.403 ± 0.01 | 3.28 | 1.22 | 3.27 | 3.06 |
| CAL72 BONE | 1.03 ± 0.082 | 1.03 ± 0.093 | 1.07 ± 0.11 | 1.06 ± 0.079 | 1.09 ± 0.095 | 1.14 ± 0.019 | 1.11 ± 0.12 | 1.08 ± 0.11 | 1.02 ± 0.056 | 1.09 ± 0.022 | 1.08 ± 0.02 | 1.07 ± 0.026 | 1.08 ± 0.029 | 1.07 ± 0.018 | 1.05 ± 0.022 | 1.06 ± 0.042 | 3.56 | 3.14 | 3.2 | 3.52 |
| CAL120 BREAST | 0.918 ± 0.082 | 0.924 ± 0.054 | 0.941 ± 0.056 | 0.921 ± 0.051 | 0.968 ± 0.052 | 0.923 ± 0.019 | 0.893 ± 0.045 | 0.886 ± 0.026 | 0.944 ± 0.017 | 0.896 ± 0.025 | 0.922 ± 0.013 | 0.883 ± 0.036 | 0.896 ± 0.025 | 0.78 ± 0.009 | 0.4962 ± 0.0023 | 0.248 ± 0.054 | 3.04 | 2.16 | 3.33 | 2.69 |
| CASKI CERVIX | 0.969 ± 0.021 | 0.914 ± 0.05 | 0.942 ± 0.021 | 0.907 ± 0.063 | 0.959 ± 0.031 | 0.907 ± 0.021 | 0.953 ± 0.038 | 0.768 ± 0.027 | 0.88 ± 0.024 | 0.942 ± 0.062 | 0.957 ± 0.013 | 0.903 ± 0.029 | 0.971 ± 0.046 | 0.955 ± 0.034 | 0.496 ± 0.02 | 0.448 ± 0.027 | 3.03 | 2.72 | 2.98 | 2.94 |
| CHLA90 AUTONOMIC GANGLIA | 0.917 ± 0.024 | 0.936 ± 0.052 | 0.9 ± 0.065 | 0.863 ± 0.016 | 0.913 ± 0.023 | 0.907 ± 0.072 | 0.868 ± 0.11 | 0.856 ± 0.097 | 0.971 ± 0.026 | 1.08 ± 0.046 | 0.976 ± 0.013 | 0.839 ± 0.047 | 1.02 ± 0.052 | 0.982 ± 0.063 | 0.977 ± 0.022 | 0.844 ± 0.053 | 2.95 | 2.97 | 3.37 | 3.28 |
| COLO320DM LARGE INTESTINE | 1.08 ± 0.12 | 1.07 ± 0.13 | 1.04 ± 0.13 | 1.11 ± 0.08 | 1.18 ± 0.069 | 1.23 ± 0.093 | 1.16 ± 0.049 | 1.04 ± 0.099 | 1.1 ± 0.13 | 1.18 ± 0.15 | 1.12 ± 0.086 | 1.04 ± 0.049 | 1.22 ± 0.17 | 1.07 ± 0.14 | 0.577 ± 0.041 | 0.177 ± 0.0091 | 3.68 | 2.75 | 3.46 | 3.04 |
| H23 LUNG | 0.962 ± 0.052 | 0.931 ± 0.021 | 0.974 ± 0.022 | 0.924 ± 0.032 | 0.945 ± 0.043 | 0.936 ± 0.053 | 0.937 ± 0.066 | 0.925 ± 0.028 | 1.04 ± 0.048 | 0.983 ± 0.034 | 1.04 ± 0.036 | 1 ± 0.0087 | 1.18 ± 0.034 | 1.27 ± 0.037 | 1.44 ± 0.1 | 1.29 ± 0.062 | 3.11 | 2.65 | 3.59 | 3.81 |
| HCC78 LUNG | 0.826 ± 0.047 | 0.884 ± 0.047 | 0.991 ± 0.044 | 0.608 ± 0.16 | 0.315 ± 0.049 | 0.281 ± 0.088 | 0.185 ± 0.023 | 0.221 ± 0.058 | 1.01 ± 0.12 | 0.818 ± 0.22 | 0.852 ± 0.12 | 1 ± 0.091 | 0.947 ± 0.22 | 1.06 ± 0.019 | 0.326 ± 0.042 | 0.0463 ± 0.011 | 1.8 | 2.26 | 3.9 | 2.95 |
| HCC202 BREAST | 1.12 ± 0.14 | 1.11 ± 0.079 | 1.2 ± 0.031 | 1.15 ± 0.17 | 1.1 ± 0.28 | 1.13 ± 0.065 | 1.31 ± 0.12 | 1.09 ± 0.098 | 1.19 ± 0.26 | 1.12 ± 0.13 | 1.31 ± 0.11 | 1.12 ± 0.12 | 0.808 ± 0.14 | 0.777 ± 0.34 | 0.476 ± 0.12 | 0.295 ± 0.049 | – | – | 3.04 | 2.75 |
| HCC1395 BREAST | 1.12 ± 0.073 | 1.02 ± 0.06 | 1.14 ± 0.045 | 1.23 ± 0.034 | 1.38 ± 0.14 | 1.33 ± 0.053 | 1.13 ± 0.085 | 1.2 ± 0.086 | 1.1 ± 0.23 | 1.05 ± 0.16 | 1.31 ± 0.066 | 1.11 ± 0.11 | 1.25 ± 0.11 | 1.21 ± 0.042 | 1.03 ± 0.11 | 0.94 ± 0.1 | 3.98 | 2.84 | 3.09 | 3.8 |
